Laboratory results from US9351974B2, “Substituted pteridinones for the treatment of cancer” (OSI Pharmaceuticals, LLC, priority 2011, dated 2016).

Target: T1, His-tagged full-length RSK2 (RPS6KA3) (Homo sapiens, UniProt P51812)
T1 construct: His-tagged full-length RSK2 (RPS6KA3, Invitrogen PV3323); His; purchased Invitrogen PV3323
Assay: RSK2 Omnia Assay for compound IC50 determination
Type: biochemical
Conditions: ATP 15 μM, n=2, read-out: Mean RSK2 Biochem IC50
Description: RSK1 & RSK2 Omnia Assay Protocol for Compound IC50 Determination
The Omnia Assay (Invitrogen) has been optimized for His-tagged full length RSK1 (RPS6KA1, Millipore 14-509) and for His-tagged full-length RSK2 (RPS6KA3, Invitrogen PV3323). In this assay system, Omnia ST Peptide 6 (Invitrogen KNZ1061) functions as a substrate for RSK1 or RSK2. Phosphorylation of this SOX-containing peptide results in an increase in fluorescence at 485 nm upon excitation at 360 nm.
Assays are carried out in 384-well OptiPlates (Perkin Elmer 6007290) in a total volume of 20 μL containing RSK1 ([…]) or RSK2 ([…]), Omnia ST Peptide 6 (5 μM), ATP (15 μM, Km=16.3 μM), and test compound (variable) in RSK assay buffer (50 mM HEPES, pH 7.5, 10 mM MgCl2, 0.01% Tween-20, 1% glycerol, 1 mM DTT, 1 mM EGTA, 0.01% BSA) with 1% DMSO.
IC50s for test compounds are typically determined using an 11-point three-fold serial dilution with a final assay concentration ranging either from 170 μM to […] or from 17 μM to […]. All compound concentrations are assayed in duplicate. Initial compound dilutions are prepared at 100× concentration in 100% DMSO from a 10 mM stock solution. Compounds are further diluted 1:25 in assay buffer resulting in a 4× concentrated solution.
To run the assay 5 μL of the above 4× concentrated compound solution (or 4% DMSO for positive controls) is added to the assay plate followed by 5 μL of a solution containing peptide (20 μM) and ATP (60 μM) in assay buffer. The reaction is initiated by the addition of 10 μL of RSK1 ([…]) or RSK2 ([…]) in assay buffer, or assay buffer alone for negative controls. The increase in fluorescence due to peptide phosphorylation is monitored continuously as a function of time using a Spectramax M5 plate reader (Molecular Devices) equipped with SoftMax Pro software.
The slopes from the linear portion of progress curves are used to determine IC50 values by non-linear curve-fitting to a four-parameter equation using GraphPad Prism (GraphPad Software, Inc.) or XLFit (IDBS). IC50's are determined in duplicate (n=2) and Ki values are calculated from IC50 values using the Cheng-Prusoff equation assuming a competitive mode of inhibition.

T1 sequence (P51812 whole entry): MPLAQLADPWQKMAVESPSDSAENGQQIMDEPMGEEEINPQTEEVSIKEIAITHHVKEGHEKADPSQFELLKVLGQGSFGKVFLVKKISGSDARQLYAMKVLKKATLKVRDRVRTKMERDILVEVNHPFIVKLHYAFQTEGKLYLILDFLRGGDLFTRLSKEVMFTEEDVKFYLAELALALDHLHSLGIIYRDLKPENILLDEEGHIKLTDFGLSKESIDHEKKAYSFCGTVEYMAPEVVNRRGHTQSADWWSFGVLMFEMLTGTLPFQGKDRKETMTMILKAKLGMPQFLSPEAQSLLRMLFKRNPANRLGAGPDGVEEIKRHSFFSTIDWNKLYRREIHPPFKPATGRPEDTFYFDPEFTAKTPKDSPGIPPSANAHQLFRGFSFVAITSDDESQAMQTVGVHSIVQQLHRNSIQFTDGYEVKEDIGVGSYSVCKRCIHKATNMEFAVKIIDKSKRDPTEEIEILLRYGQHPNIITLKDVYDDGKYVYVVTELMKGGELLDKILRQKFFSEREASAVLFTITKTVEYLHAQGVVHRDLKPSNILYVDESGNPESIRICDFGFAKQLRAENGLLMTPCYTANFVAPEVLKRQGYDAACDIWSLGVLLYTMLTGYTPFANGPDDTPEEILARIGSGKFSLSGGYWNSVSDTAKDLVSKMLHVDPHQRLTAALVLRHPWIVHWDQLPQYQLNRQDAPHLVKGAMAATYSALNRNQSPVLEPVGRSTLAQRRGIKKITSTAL

In the case of `C[C@@H]1C(=O)N(c2ccc(N(C)C)cc2)c2cnc(Nc3ccc4[nH]ncc4c3)nc2N1C1CCCCC1` [Example 41, (7R)-8-cyclohexyl-5-[4-(dimethylamino)phenyl]-2-(1H-indazol-5-ylamino)-7-methyl-7,8-dihydropteridin-6(5H)-one], the IC50 is reported as at most 100 nM.

With `CNS(=O)(=O)c1cccc(N2C(=O)[C@@H](C)N(C3CCCCC3)c3nc(Nc4ccc5[nH]ncc5c4)ncc32)c1` [Example 42, 3-[(7R)-8-cyclohexyl-2-(1H-indazol-5-ylamino)-7-methyl-6-oxo-7,8-dihydropteridin-5(6H)-yl]-N-methylbenzenesulfonamide] the IC50 was at most 100 nM.

With `C[C@@H]1C(=O)N(c2cccc(S(C)(=O)=O)c2)c2cnc(Nc3ccc4[nH]ncc4c3)nc2N1C1CCCCC1` [Example 43, (7R)-8-cyclohexyl-2-(1H-indazol-5-ylamino)-7-methyl-5-[3-(methylsulfonyl)phenyl]-7,8-dihydropteridin-6(5H)-one] the IC50 was at most 100 nM.

`C[C@@H]1C(=O)N(c2cccc(N(C)C)c2)c2cnc(Nc3ccc4[nH]ncc4c3)nc2N1C1CCCCC1` [Example 44, (7R)-8-cyclohexyl-5-[3-(dimethylamino)phenyl]-2-(1H-indazol-5-ylamino)-7-methyl-7,8-dihydropteridin-6(5H)-one] gave an IC50 of at most 100 nM.

`C[C@@H]1C(=O)N(c2ccc3ccccc3c2)c2cnc(Nc3ccc4[nH]ncc4c3)nc2N1C1CCCCC1` [Example 45, (7R)-8-cyclohexyl-2-(1H-indazol-5-ylamino)-7-methyl-5-(naphthalen-2-yl)-7,8-dihydropteridin-6(5H)-one] showed an IC50 of at most 100 nM.

For `CNC(=O)c1cccc(N2C(=O)[C@@H](C)N(C3CCCCC3)c3nc(Nc4ccc5[nH]ncc5c4)ncc32)c1` [Example 46, 3-[(7R)-8-cyclohexyl-2-(1H-indazol-5-ylamino)-7-methyl-6-oxo-7,8-dihydropteridin-5(6H)-yl]-N-methylbenzamide], the IC50 was at most 100 nM.

`C[C@@H]1C(=O)N(c2ccc(NS(C)(=O)=O)cc2)c2cnc(Nc3ccc4[nH]ncc4c3)nc2N1C1CCCCC1` [Example 47, N-{4-[(7R)-8-cyclohexyl-2-(1H-indazol-5-ylamino)-7-methyl-6-oxo-7,8-dihydropteridin-5(6H)-yl]phenyl}methanesulfonamide] showed an IC50 of at most 100 nM.

Work on `COc1ccc(N2C(=O)[C@@H](C)N(C3CCCCC3)c3nc(Nc4ccc5[nH]ncc5c4)ncc32)cn1` [Example 48, (7R)-8-cyclohexyl-2-(1H-indazol-5-ylamino)-5-(6-methoxypyridin-3-yl)-7-methyl-7,8-dihydropteridin-6(5H)-one] yielded an IC50 of at most 100 nM.

Work on `C[C@@H]1C(=O)N(c2ccc(F)c(F)c2)c2cnc(Nc3ccc4[nH]ncc4c3)nc2N1C1CCCCC1` [Example 49, (7R)-8-cyclohexyl-5-(3,4-difluorophenyl)-2-(1H-indazol-5-ylamino)-7-methyl-7,8-dihydropteridin-6(5H)-one] yielded an IC50 of at most 100 nM.

Work on `C[C@@H]1C(=O)N(c2cnc3ccccc3c2)c2cnc(Nc3ccc4[nH]ncc4c3)nc2N1C1CCCCC1` [Example 50, (7R)-8-cyclohexyl-2-(1H-indazol-5-ylamino)-7-methyl-5-(quinolin-3-yl)-7,8-dihydropteridin-6(5H)-one] yielded an IC50 of at most 100 nM.

For `C[C@@H]1C(=O)N(c2cccc(C#N)c2)c2cnc(Nc3ccc4c(c3)CC(=O)N4)nc2N1C1CCCCC1` [Example 51, 3-[(7R)-8-cyclohexyl-7-methyl-6-oxo-2-[(2-oxo-2,3-dihydro-1H-indol-5-yl)amino]-7,8-dihydropteridin-5(6H)-yl]benzonitrile], the IC50 was at most 100 nM.

Work on `COC(=O)c1ccc(N2C(=O)[C@@H](C)N(C3CCCCC3)c3nc(Nc4ccc5[nH]ncc5c4)ncc32)cc1` [Example 52, methyl 4-[(7R)-8-cyclohexyl-2-(1H-indazol-5-ylamino)-7-methyl-6-oxo-7,8-dihydropteridin-5(6H)-yl]benzoate] yielded an IC50 of at most 100 nM.

In the case of `Cc1ccc(N2C(=O)[C@@H](C)N(C3CCCCC3)c3nc(Nc4ccc5[nH]ncc5c4)ncc32)cc1C#N` [Example 53, 5-[(7R)-8-cyclohexyl-2-(1H-indazol-5-ylamino)-7-methyl-6-oxo-7,8-dihydropteridin-5(6H)-yl]-2-methylbenzonitrile], the IC50 is reported as at most 100 nM.

`COc1cc(N2C(=O)[C@@H](C)N(C3CCCCC3)c3nc(Nc4ccc5[nH]ncc5c4)ncc32)ccc1F` [Example 54, (7R)-8-cyclohexyl-5-(4-fluoro-3-methoxyphenyl)-2-(1H-indazol-5-ylamino)-7-methyl-7,8-dihydropteridin-6(5H)-one] gave an IC50 of at most 100 nM.

`COc1ccc(N2C(=O)[C@@H](C)N(C3CCCCC3)c3nc(Nc4ccc5[nH]ncc5c4)ncc32)cc1F` [Example 55, (7R)-8-cyclohexyl-5-(3-fluoro-4-methoxyphenyl)-2-(1H-indazol-5-ylamino)-7-methyl-7,8-dihydropteridin-6(5H)-one] showed an IC50 of at most 100 nM.

With `C[C@@H]1C(=O)N(c2cccc(C#N)c2)c2cnc(Nc3cc4cn[nH]c4cc3F)nc2N1C1CCCCC1` [Example 56, 3-[(7R)-8-cyclohexyl-2-[(6-fluoro-1H-indazol-5-yl)amino]-7-methyl-6-oxo-7,8-dihydropteridin-5(6H)-yl]benzonitrile] the IC50 was at most 100 nM.

Compound `C[C@@H]1C(=O)N(c2cnn(C)c2)c2cnc(Nc3ccc4[nH]ncc4c3)nc2N1C1CCCCC1` [Example 58, (7R)-8-cyclohexyl-2-(1H-indazol-5-ylamino)-7-methyl-5-(1-methyl-1H-pyrazol-4-yl)-7,8-dihydropteridin-6(5H)-one] has an IC50 of at most 100 nM.

In the case of `Cc1cc(Nc2ncc3c(n2)N(C2CCCCC2)[C@H](C)C(=O)N3c2cccc(C#N)c2)cc2cn[nH]c12` [Example 59, 3-[(7R)-8-cyclohexyl-7-methyl-2-[(7-methyl-1H-indazol-5-yl)amino]-6-oxo-7,8-dihydropteridin-5(6H)-yl]benzonitrile], the IC50 is reported as 100 to 1000 nM.

`CC1C(=O)N(c2ccccc2)c2cnc(Nc3ccc4c(c3)CC(=O)N4)nc2N1C1CCCCC1` (stereo not drawn) [Example 60, 8-cyclohexyl-7-methyl-2-[(2-oxo-2,3-dihydro-1H-indol-5-yl)amino]-5-phenyl-7,8-dihydropteridin-6(5H)-one] was tested, and the IC50 was at most 100 nM.

With `CC1C(=O)N(c2ccccc2)c2cnc(Nc3ccc4[nH]ncc4c3)nc2N1C1CCCCC1` (stereo not drawn) [Example 61, 8-cyclohexyl-2-(1H-indazol-5-ylamino)-7-methyl-5-phenyl-7,8-dihydropteridin-6(5H)-one] the IC50 was at most 100 nM.

`C[C@H]1C(=O)N(c2ccccc2)c2cnc(Nc3ccc4[nH]ncc4c3)nc2N1C1CCCCC1` [Example 62, (7S)-8-cyclohexyl-2-(1H-indazol-5-ylamino)-7-methyl-5-phenyl-7,8-dihydropteridin-6(5H)-one] showed an IC50 of 100 to 1000 nM.

`C[C@@H]1C(=O)N(c2ccc(C(=O)O)cc2)c2cnc(Nc3ccc4[nH]ncc4c3)nc2N1C1CCCCC1` [Example 63, 4-[(7R)-8-cyclohexyl-2-(1 H-indazol-5-ylamino)-7-methyl-6-oxo-7,8-dihydropteridin-5(6H)-yl]benzoic acid] showed an IC50 of at most 100 nM.

With `CC1C(=O)N(c2ccccc2)c2cnc(Nc3ccc4[nH]ncc4c3)nc2N1C1CCCC1` (stereo not drawn) [Example 64, 8-cyclopentyl-2-(1H-indazol-5-ylamino)-7-methyl-5-phenyl-7,8-dihydropteridin-6(5H)-one] the IC50 was at most 100 nM.

Work on `CC1C(=O)N(c2ccccc2)c2cnc(Nc3ccc4c(c3)CC(=O)N4)nc2N1C1CCCC1` (stereo not drawn) [Example 65, 8-cyclopentyl-7-methyl-2-[(2-oxo-2,3-dihydro-1H-indol-5-yl)amino]-5-phenyl-7,8-dihydropteridin-6(5H)-one] yielded an IC50 of at most 100 nM.

`C[C@H]1C(=O)N(c2ccccc2)c2cnc(Nc3ccc4[nH]ncc4c3)nc2N1C1CCCC1` [Example 67, (7S)-8-cyclopentyl-2-(1H-indazol-5-ylamino)-7-methyl-5-phenyl-7,8-dihydropteridin-6(5H)-one] was tested, and the IC50 was 100 to 1000 nM.

Compound `C[C@@H]1C(=O)N(c2ccccc2)c2cnc(Nc3ccc4c(c3)CC(=O)N4)nc2N1C1CCCC1` [Example 68, (7R)-8-cyclopentyl-7-methyl-2-[(2-oxo-2,3-dihydro-1H-indol-5-yl)amino]-5-phenyl-7,8-dihydropteridin-6(5H)-one] has an IC50 of at most 100 nM.

`C[C@@H]1C(=O)N(c2cccc(C#N)c2)c2cnc(Nc3ccc4[nH]ncc4c3)nc2N1C1CCCC1` [Example 69, 3-[(7R)-8-cyclopentyl-2-(1H-indazol-5-ylamino)-7-methyl-6-oxo-7,8-dihydropteridin-5(6H)-yl]benzonitrile] gave an IC50 of at most 100 nM.
